# Assay results taken from patent publication US7012061B1 (New York University, priority 1998, dated 2006).
# Values joined by “and” are separate entries in the source; they are usually repeats but may differ in a detail not shown here. Equal values may be shown once. Read-outs that look alike come from different tables or passages of the source.
# Legend:
# VSV [1] = format: cell-based, Vesicular stomatitis virus; details: for VSV in supernatant: NB41A3, 8 h pi; for VSV in supernatant / VSV infectious virus in supernatant: inhibitors 400 mM, moi = 1; for VSV infectious virus in supernatant: 8 hour infection
# VSV [2] = format: cell-based, Vesicular stomatitis virus; details: C6 Glia, moi = 1, 8 h pi
# Influenza virus A/WSN/33 = format: cell-based; details: inhibitors 400 mM, 8 hour infection, moi = 1
# Sindbis AR339 virus = format: cell-based
# VSV [3] = format: cell-based, Vesicular stomatitis virus; details: RAW, inhibitors, moi = 1, 8 h pi
# HSV-1 = format: cell-based, Herpes Simplex virus-1
# type I NOS = type I NOS (Homo sapiens, UniProt P29475); details: Moore et al, 1993; cited from earlier work
# Sequence of type I NOS (P29475 whole entry): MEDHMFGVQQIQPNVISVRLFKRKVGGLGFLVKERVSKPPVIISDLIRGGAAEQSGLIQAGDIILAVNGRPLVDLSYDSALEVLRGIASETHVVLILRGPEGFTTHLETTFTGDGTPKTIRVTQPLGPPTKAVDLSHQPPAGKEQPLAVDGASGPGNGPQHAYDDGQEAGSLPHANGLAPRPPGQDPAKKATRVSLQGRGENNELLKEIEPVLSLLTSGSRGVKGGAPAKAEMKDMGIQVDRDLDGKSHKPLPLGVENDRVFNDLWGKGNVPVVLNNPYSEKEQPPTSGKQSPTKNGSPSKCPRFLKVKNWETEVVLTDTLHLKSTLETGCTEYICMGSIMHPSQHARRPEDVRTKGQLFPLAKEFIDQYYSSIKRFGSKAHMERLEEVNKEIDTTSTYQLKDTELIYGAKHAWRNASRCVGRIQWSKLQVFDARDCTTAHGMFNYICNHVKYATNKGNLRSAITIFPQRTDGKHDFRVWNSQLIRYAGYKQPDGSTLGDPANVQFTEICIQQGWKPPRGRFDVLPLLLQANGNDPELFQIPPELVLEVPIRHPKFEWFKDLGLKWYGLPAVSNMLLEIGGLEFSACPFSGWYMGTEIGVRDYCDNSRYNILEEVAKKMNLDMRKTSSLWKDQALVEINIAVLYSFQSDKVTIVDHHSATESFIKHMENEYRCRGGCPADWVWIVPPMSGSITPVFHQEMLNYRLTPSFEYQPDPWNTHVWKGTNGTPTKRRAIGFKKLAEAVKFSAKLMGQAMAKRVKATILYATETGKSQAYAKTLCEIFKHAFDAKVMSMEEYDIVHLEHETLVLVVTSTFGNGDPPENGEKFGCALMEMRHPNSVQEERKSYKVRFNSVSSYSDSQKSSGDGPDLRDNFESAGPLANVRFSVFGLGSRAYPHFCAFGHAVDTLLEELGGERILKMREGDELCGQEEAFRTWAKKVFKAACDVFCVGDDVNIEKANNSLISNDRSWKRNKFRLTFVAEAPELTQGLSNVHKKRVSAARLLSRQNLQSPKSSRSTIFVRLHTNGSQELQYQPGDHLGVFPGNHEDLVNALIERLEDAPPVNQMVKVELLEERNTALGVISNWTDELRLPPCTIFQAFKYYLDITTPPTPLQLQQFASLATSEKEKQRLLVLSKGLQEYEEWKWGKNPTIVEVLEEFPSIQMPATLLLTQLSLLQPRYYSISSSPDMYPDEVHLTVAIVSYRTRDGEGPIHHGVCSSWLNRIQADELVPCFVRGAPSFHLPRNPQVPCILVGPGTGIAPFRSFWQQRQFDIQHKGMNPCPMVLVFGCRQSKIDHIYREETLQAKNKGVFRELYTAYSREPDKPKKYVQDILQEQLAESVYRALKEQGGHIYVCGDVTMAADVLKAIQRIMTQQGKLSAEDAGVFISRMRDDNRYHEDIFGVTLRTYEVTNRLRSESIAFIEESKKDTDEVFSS
# VSV [4] = format: in vivo, mice; details: BALB/c male mice
# [5] = 5 μg IFN-γ for 72 hours prior to infection
# [6] = IFN-γ 5 ng for 72 hours, inhibitors 400 mM
Structure (SMILES),VSV in supernatant (VSV [1]; NMDA 500 mM for two minutes),VSV in supernatant (VSV [2]),Influenza infectious virus in supernatant (Influenza virus A/WSN/33; [5]),Influenza infectious virus in supernatant (Influenza virus A/WSN/33; Media (no IFN-γ)),VSV infectious virus in supernatant (VSV [1]; [5]),VSV infectious virus in supernatant (VSV [1]; Media (no IFN-γ)),VSV in supernatant (VSV [1]; IFN-γ 5 ng for 72 hours),VSV in supernatant (VSV [1]; Medium),Sindbis infectious virus in supernatant (Sindbis AR339 virus),VSV in supernatant (VSV [3]; IFN-γ 5 ng for 72 hours),VSV in supernatant (VSV [3]; Medium),VSV in supernatant (VSV [2]; [6]),"VSV in supernatant (VSV [2]; Medium, inhibitors 400 mM)",HSV-1 infectious virus in supernatant (HSV-1),Effect on IFN-γ-induced inhibition of VSV replication (VSV [1]; NB41A3 cells),NOS isoform selectivity (type I NOS),"Effect on IL-12-mediated enhanced clearance of VSV (VSV [4]; 50 mg/kg with 200 ng IL-12, four days post infection)","Geometric mean titer (GMT) of virus in brain homogenates compared to indazole-treated mice (VSV [4]; 50 mg/kg, four days post infection)",Effect on IFN-γ-induced inhibition of HSV-1 replication (HSV-1)
CN[C@H](CC(=O)O)C(=O)O [NMDA],3.71 ± .20 log10 PFU,5.54 ± .24 log10 PFU,,,,,,,,,,,,,,,,,
"c1ccc2[nH]ncc2c1 [Indazole, indazole]",4.39 ± .36 log10 PFU,4.48 ± .17 log10 PFU,3.546 ± .212 Log10 PFU,5.268 ± .350 Log10 PFU,3.678 ± .174 Log10 PFU,5.460 ± .408 Log10 PFU,4.23 ± .29 log10 PFU,5.58 ± .27 log10 PFU,5.053 ± .217 Log10 PFU and 3.752 ± .046 Log10 PFU,4.49 ± .48 log10 PFU,5.45 ± .21 log10 PFU,4.48 ± .42 log10 PFU,5.63 ± .19 log10 PFU,5.140 ± .204 Log10 PFU and 3.175 ± .369 Log10 PFU,,,,,
"O=[N+]([O-])c1cccc2cn[nH]c12 [7-NI, 7-nitroindazole]",5.57 ± .15 log10 PFU,4.59 ± .52 log10 PFU,3.897 ± .089 Log10 PFU,5.560 ± .489 Log10 PFU,5.752 ± .331 Log10 PFU,5.985 ± .428 Log10 PFU,5.76 ± .10 log10 PFU,5.76 ± .18 log10 PFU,4.935 ± .056 Log10 PFU and 3.897 ± .089 Log10 PFU,4.84 ± .15 log10 PFU,5.87 ± .08 log10 PFU,4.54 ± .14 log10 PFU,5.83 ± .14 log10 PFU,5.159 ± .194 Log10 PFU and 5.170 ± .264 Log10 PFU,abrogation,"selective inhibitor of type I, but not types II or III NOS",abrogated,ten-fold greater GMT,abrogation
